Results taken from ChEMBL document CHEMBL3217711, “Erythromycin B: conformational analysis and antibacterial activity” (2011).
Values after ≈ are worked out from the molar mass of the structure shown. Active and inactive are the calls of the source. The calls are words filed in the database; no cut-off is given here.

Columns and labels:
[1] = tested on: Staphylococcus aureus; experiment: Antimicrobial activity against Staphylococcus aureus ACC 601065 after 24 hrs by broth microdilution method; assay type: functional; settings: ACC 601065, 24 h
[2] = tested on: Staphylococcus aureus; experiment: Antimicrobial activity against Staphylococcus aureus ACC 601065 compound preincubated with 0.1 M hydrochoric acid for 40 mins measured after 24 hrs by broth microdilution method; assay type: functional
[3] = tested on: Streptococcus pyogenes; experiment: Antimicrobial activity against Streptococcus pyogenes after 24 hrs by broth microdilution method; assay type: functional
[4] = tested on: Streptococcus pyogenes; experiment: Antimicrobial activity against Streptococcus pyogenes compound preincubated with 0.1 M hydrochoric acid for 40 mins measured after 24 hrs by broth microdilution method; assay type: functional
[5] = tested on: Haemophilus influenzae; experiment: Antimicrobial activity against Haemophilus influenzae ATC 12699 after 24 hrs by broth microdilution method; assay type: functional; settings: ATC 12699, 24 h
[6] = tested on: Haemophilus influenzae; experiment: Antimicrobial activity against Haemophilus influenzae ATC 12699 compound preincubated with 0.1 M hydrochoric acid for 40 mins measured after 24 hrs by broth microdilution method; assay type: functional
[7] = tested on: Burkholderia cepacia; experiment: Antimicrobial activity against Burkholderia cepacia after 24 hrs by broth microdilution method; assay type: functional, organism-based
[8] = tested on: Burkholderia cepacia; experiment: Antimicrobial activity against Burkholderia cepacia compound preincubated with 0.1 M hydrochoric acid for 40 mins measured after 24 hrs by broth microdilution method; assay type: functional, organism-based
[9] = tested on: Escherichia coli; experiment: Binding affinity to Escherichia coli MRE 600 30S ribosome in 2M LiCl in buffered D2O at pH 7.4 by NMR analysis
[10] = tested on: Escherichia coli; experiment: Binding affinity to Escherichia coli MRE 600 50S ribosome in 2M LiCl in buffered D2O at pH 7.4 by NMR analysis

Row | Compound | MIC [1] [µg/mL] | MIC [2] [µg/mL] | MIC [3] [µg/mL] | MIC [4] [µg/mL] | MIC [5] [µg/mL] | MIC [6] [µg/mL] | MIC [7] | MIC [8] | Activity [9] | Activity [10]
1 | CC[C@H]1OC(=O)[C@H](C)[C@@H](O[C@H]2C[C@@](C)(OC)[C@@H](O)[C@H](C)O2)[C@H](C)[C@@H](O[C@@H]2O[C@H](C)C[C@H](N(C)C)[C@H]2O)[C@](C)(OC)C[C@@H](C)C(=O)[C@H](C)[C@@H](O)[C@]1(C)O [CLARITHROMYCIN] | 0.6 (≈ 0.802 µM) | 0.9 (≈ 1.2 µM) | 0.2 (≈ 0.267 µM) | 0.3 (≈ 0.401 µM) | 0.6 (≈ 0.802 µM) | 1.8 (≈ 2.41 µM) | inactive | inactive | – | –
2 | CC[C@H]1OC(=O)[C@H](C)[C@@H](O[C@H]2C[C@@](C)(OC)[C@@H](O)[C@H](C)O2)[C@H](C)[C@@H](O[C@@H]2O[C@H](C)C[C@H](N(C)C)[C@H]2O)[C@](C)(O)C[C@@H](C)C(=O)[C@H](C)[C@@H](O)[C@H]1C [BERYTHROMYCIN] | 0.7 (≈ 0.975 µM) | 1.4 (≈ 1.95 µM) | 0.2 (≈ 0.279 µM) | 0.3 (≈ 0.418 µM) | 2.3 (≈ 3.2 µM) | 3.6 (≈ 5.01 µM) | inactive | inactive | inactive | Active
3 | CC[C@H]1OC(=O)[C@H](C)[C@@H](O[C@H]2C[C@@](C)(OC)[C@@H](O)[C@H](C)O2)[C@H](C)[C@@H](O[C@@H]2O[C@H](C)C[C@H](N(C)C)[C@H]2O)[C@](C)(O)C[C@@H](C)C(=O)[C@H](C)[C@@H](O)[C@]1(C)O [ERYTHROMYCIN] | 0.9 (≈ 1.23 µM) | > 8 | 0.2 (≈ 0.273 µM) | 1 (≈ 1.36 µM) | 2.2 (≈ 3 µM) | > 4 | inactive | inactive | – | –
